ChEMBL document CHEMBL3714709, “T1R hetero-oligomeric taste receptors, cell lines that express said receptors, and taste compounds” (2008)
Activity calls are given as the source filed them. The rule behind the calls is not given here.

Key:
T1R1/T1R3 (Homo sapiens) = T1R1/T1R3 (Homo sapiens) (UniProt Q7RTX0+Q7RTX1); assay: Activation of human T1R1/T1R3; type: protein-complex assay
[1] = target: T1, Taste receptor type 2 member 105 (Mus musculus) (UniProt Q9JKT4); assay: Inhibition of mouse T2R5 expressed in HEK293 cells; type: cell-based
T1 sequence (whole entry): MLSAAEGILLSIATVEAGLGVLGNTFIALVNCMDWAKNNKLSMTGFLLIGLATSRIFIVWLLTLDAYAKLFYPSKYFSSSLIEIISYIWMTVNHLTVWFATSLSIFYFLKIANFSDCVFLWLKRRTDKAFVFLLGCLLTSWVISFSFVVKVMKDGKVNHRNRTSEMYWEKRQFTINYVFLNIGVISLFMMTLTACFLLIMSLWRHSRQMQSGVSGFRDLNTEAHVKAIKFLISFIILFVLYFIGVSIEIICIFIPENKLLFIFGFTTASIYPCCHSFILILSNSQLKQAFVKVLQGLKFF

[2] = target: Muscarinic acetylcholine receptor (Homo sapiens) (UniProt P20309+P08173+P11229+P08172+P08912); assay: Inhibition of mAChR (unknown origin) expressed in HEK293 cells; type: cell-based

SMILES	Activity (T1R1/T1R3 (Homo sapiens))	inhibition [1]	inhibition [2]
O=C1NS(=O)(=O)c2ccccc21	inactive	–	–
OC[C@H]1O[C@@](CO)(O[C@H]2O[C@H](CO)[C@@H](O)[C@H](O)[C@H]2O)[C@@H](O)[C@@H]1O	inactive	–	–
N[C@H](Cc1c[nH]c2ccccc12)C(=O)O	inactive	–	–
COc1ccc(OC(C)C(=O)O)cc1 (stereo not given)	–	inactive	inactive
